From US7781591B2, “Substituted 3-cyanopyridines as protein kinase inhibitors” (Wyeth LLC, priority 2006, dated 2010)

These compounds were tested against T1, human PKCθ full length enzyme (Homo sapiens, UniProt Q04759) (assay: PKCθ IMAP assay (fluorescence polarization)). Settings: human PKCθ full length enzyme, IMAP; average value; read-out: IC50 PKCθ IMAP.
T1 construct: human PKCθ full length enzyme (Panvera Cat# P2996); purchased Panvera P2996
Assay type: biochemical

T1 sequence (Q04759 whole entry): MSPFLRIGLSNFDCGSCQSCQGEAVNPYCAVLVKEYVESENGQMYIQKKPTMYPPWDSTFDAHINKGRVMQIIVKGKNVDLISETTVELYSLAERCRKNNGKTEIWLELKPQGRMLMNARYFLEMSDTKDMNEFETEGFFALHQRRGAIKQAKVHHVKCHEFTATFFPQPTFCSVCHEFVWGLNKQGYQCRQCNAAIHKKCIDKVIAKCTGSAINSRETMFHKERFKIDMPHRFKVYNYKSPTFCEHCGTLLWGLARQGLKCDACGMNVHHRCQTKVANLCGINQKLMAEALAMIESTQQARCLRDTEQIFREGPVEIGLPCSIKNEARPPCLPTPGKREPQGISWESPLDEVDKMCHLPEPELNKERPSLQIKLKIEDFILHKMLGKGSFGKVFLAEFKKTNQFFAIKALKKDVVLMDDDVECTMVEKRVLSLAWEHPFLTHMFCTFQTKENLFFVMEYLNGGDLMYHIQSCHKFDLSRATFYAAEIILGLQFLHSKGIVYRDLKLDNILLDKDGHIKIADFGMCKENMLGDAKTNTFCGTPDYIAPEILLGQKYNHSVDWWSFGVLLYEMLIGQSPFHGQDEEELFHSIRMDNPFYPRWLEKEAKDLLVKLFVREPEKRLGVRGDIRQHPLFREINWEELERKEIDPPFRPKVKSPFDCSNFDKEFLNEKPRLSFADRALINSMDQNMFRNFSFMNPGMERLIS

Structure (SMILES) | IC50 [nM]
CN(C)c1ccc(-c2cncc(C#N)c2Nc2cccnc2)cc1 [Compound 291, 5-[4-(dimethylamino)phenyl]-4-(pyridin-3-ylamino)nicotinonitrile] | 4860
CN(C)c1ccc(-c2cncc(C#N)c2Nc2ccc3[nH]ncc3c2)cc1 [Compound 292, 5-[4-(dimethylamino)phenyl]-4-(1H-indazol-5-ylamino)nicotinonitrile] | 13200
CN(C)c1ccc(-c2cncc(C#N)c2Nc2ccc3cn[nH]c3c2)cc1 [Compound 293, 5-[4-(dimethylamino)phenyl]-4-(1H-indazol-6-ylamino)nicotinonitrile] | 36000
CN(C)c1ccc(-c2cncc(C#N)c2Nc2cc(O)[nH]n2)cc1 [Compound 294, 5-[4-(dimethylamino)phenyl]-4-[(5-hydroxy-1H-pyrazol-3-yl)amino]nicotinonitrile] | 33400
COc1cccc(-c2cncc(C#N)c2Nc2ccc3[nH]ncc3c2)c1 [Compound 295, 4-(1H-indazol-5-ylamino)-5-(3-methoxyphenyl)nicotinonitrile] | 2950
COc1cccc(-c2cncc(C#N)c2Nc2ccc3cn[nH]c3c2)c1 [Compound 296, 4-(1H-indazol-6-ylamino)-5-(3-methoxyphenyl)nicotinonitrile] | 16200
COc1ccc(-c2cncc(C#N)c2Nc2cccc3[nH]ccc23)cc1OCCN(C)C [Compound 301, 5-{3-[2-(dimethylamino)ethoxy]-4-methoxyphenyl}-4-(1H-indol-4-ylamino)nicotinonitrile] | 50
COc1ccc(-c2cncc(C#N)c2Nc2cccc3[nH]ccc23)cc1OCCCl [Compound 303, 5-[3-(2-chloroethoxy)-4-methoxyphenyl]-4-(1H-indol-4-ylamino)nicotinonitrile] | 40
Cc1c(Nc2c(C#N)cncc2-c2cccc(-c3cccs3)c2)ccc2[nH]ccc12 [Compound 304, 4-[(4-methyl-1H-indol-5-yl)amino]-5-[3-(2-thienyl)phenyl]nicotinonitrile] | 110
CCc1c(Nc2c(C#N)cncc2-c2ccc(OC)c(OC)c2)ccc2[nH]ccc12 [Compound 305, 5-(3,4-dimethoxyphenyl)-4-[(4-ethyl-1H-indol-5-yl)amino]nicotinonitrile] | 60
Cc1c(Nc2c(C#N)cncc2-c2cccc(-c3ccc(C=O)s3)c2)ccc2[nH]ccc12 [Compound 306, 5-[3-(5-formyl-2-thienyl)phenyl]-4-[(4-methyl-1H-indol-5-yl)amino]nicotinonitrile] | 60
Cc1c(Nc2c(C#N)cncc2-c2cccc(-c3ccc(C(=O)NCCCCO)cc3)c2)ccc2[nH]ccc12 [Compound 309, 3′-{5-cyano-4-[(4-methyl-1H-indol-5-yl)amino]pyridin-3-yl}-N-(4-hydroxybutyl)biphenyl-4-carboxamide] | 120
CN(C)C(=O)c1cccc(-c2cncc(C#N)c2Nc2cccc3[nH]ccc23)c1 [Compound 312, 3-[5-cyano-4-(1H-indol-4-ylamino)pyridin-3-yl]-N,N-dimethylbenzamide] | 600
N#Cc1cncc(-c2cccc(C(N)=O)c2)c1Nc1cccc2[nH]ccc12 [Compound 314, 3-[5-cyano-4-(1H-indol-4-ylamino)pyridin-3-yl]benzamide] | 100
CN(C)S(=O)(=O)c1ccccc1-c1cncc(C#N)c1Nc1cccc2[nH]ccc12 [Compound 316, 2-[5-cyano-4-(1H-indol-4-ylamino)pyridin-3-yl]-N,N-dimethylbenzenesulfonamide] | 1350
N#Cc1cncc(-c2cccc3c2oc2ccccc23)c1Nc1cccc2[nH]ccc12 [Compound 319, 5-dibenzo[b,d]furan-4-yl-4-(1H-indol-4-ylamino)nicotinonitrile] | 60
N#Cc1cncc(-c2cc3ccccc3[nH]2)c1Nc1cccc2[nH]ccc12 [Compound 325, 5-(1H-indol-2-yl)-4-(1H-indol-4-ylamino)nicotinonitrile] | 60
CN(C)S(=O)(=O)c1ccc(-c2cncc(C#N)c2Nc2cccc3[nH]ccc23)cc1 [Compound 326, 4-[5-cyano-4-(1H-indol-4-ylamino)pyridin-3-yl]-N,N-dimethylbenzenesulfonamide] | 190
N#Cc1cncc(-c2cccc(C(=O)O)c2)c1Nc1cccc2[nH]ccc12 [Compound 327, 3-[5-cyano-4-(1H-indol-4-ylamino)pyridin-3-yl]benzoic acid] | 120
COc1ccc(-c2cncc(C#N)c2Nc2cccc3c2CC(=O)N3)cc1OC [Compound 329, 5-(3,4-dimethoxyphenyl)-4-[(2-oxo-2,3-dihydro-1H-indol-4-yl)amino]nicotinonitrile] | 8210
COCCNC(=O)c1ccc(-c2cncc(C#N)c2Nc2cccc3[nH]ccc23)cc1 [Compound 330, 4-[5-cyano-4-(1H-indol-4-ylamino)pyridin-3-yl]-N-(2-methoxyethyl)benzamide] | 130

These reach a lower IC50. Values come first.

IC50 [nM] | Structure (SMILES)
1 | N#Cc1cncc(-c2cc3cc(CNCc4ccccc4)ccc3s2)c1Nc1cccc2[nH]ccc12 [Compound 286, 5-{5-[(benzylamino)methyl]-1-benzothien-2-yl}-4-(1H-indol-4-ylamino)nicotinonitrile]
3 | N#Cc1cncc(-c2cc3cc(CNCCc4ccccc4)ccc3s2)c1Nc1cccc2[nH]ccc12 [Compound 287, 4-(1H-indol-4-ylamino)-5-(5-{[(2-phenylethyl)amino]methyl}-1-benzothien-2-yl)nicotinonitrile]
3 | N#Cc1cncc(-c2cc3cc(CNCc4ccccn4)ccc3s2)c1Nc1cccc2[nH]ccc12 [Compound 288, 4-(1H-indol-4-ylamino)-5-(5-{[(pyridin-2-ylmethyl)amino]methyl}-1-benzothien-2-yl)nicotinonitrile]
4 | N#Cc1cncc(-c2cc3cc(CNCc4cccnc4)ccc3s2)c1Nc1cccc2[nH]ccc12 [Compound 289, 4-(1H-indol-4-ylamino)-5-(5-{[(pyridin-3-ylmethyl)amino]methyl}-1-benzothien-2-yl)nicotinonitrile]
4 | N#Cc1cncc(-c2cc3cc(CNCc4ccncc4)ccc3s2)c1Nc1cccc2[nH]ccc12 [Compound 290, 4-(1H-indol-4-ylamino)-5-(5-{[(pyridin-4-ylmethyl)amino]methyl}-1-benzothien-2-yl)nicotinonitrile]
4 | Cc1c(Nc2c(C#N)cncc2-c2cccc(Br)c2)ccc2[nH]ccc12 [Compound 298, 5-(3-bromophenyl)-4-[(4-methyl-1H-indol-5-yl)amino]nicotinonitrile]
30 | COc1ccc(-c2cncc(C#N)c2Nc2cccc3[nH]ccc23)cc1OCCN1CCOCC1 [Compound 299, 4-(1H-indol-4-ylamino)-5-[4-methoxy-3-(2-morpholin-4-ylethoxy)phenyl]nicotinonitrile]
20 | COc1ccc(-c2cncc(C#N)c2Nc2cccc3[nH]ccc23)cc1OCCN1CCN(C)CC1 [Compound 300, 4-(1H-indol-4-ylamino)-5-{4-methoxy-3-[2-(4-methylpiperazin-1-yl)ethoxy]phenyl}nicotinonitrile]
30 | COc1ccc(-c2cncc(C#N)c2Nc2cccc3[nH]ccc23)cc1OCCN1CCC(O)CC1 [Compound 302, 5-{3-[2-(4-hydroxypiperidin-1-yl)ethoxy]-4-methoxyphenyl}-4-(1H-indol-4-ylamino)nicotinonitrile]
30 | N#Cc1cncc(-c2cccc(-c3ccc(C(=O)NCCCCO)cc3)c2)c1Nc1cccc2[nH]ccc12 [Compound 308, 3′-[5-cyano-4-(1H-indol-4-ylamino)pyridin-3-yl]-N-(4-hydroxybutyl)biphenyl-4-carboxamide]
20 | N#Cc1cncc(-c2cccc(C(F)(F)F)c2)c1Nc1cccc2[nH]ccc12 [Compound 310, 4-(1H-indol-4-ylamino)-5-[3-(trifluoromethyl)phenyl]nicotinonitrile]
20 | N#Cc1cccc(-c2cncc(C#N)c2Nc2cccc3[nH]ccc23)c1 [Compound 311, 5-(3-cyanophenyl)-4-(1H-indol-4-ylamino)nicotinonitrile]
20 | CN(C)S(=O)(=O)c1cccc(-c2cncc(C#N)c2Nc2cccc3[nH]ccc23)c1 [Compound 313, 3-[5-cyano-4-(1H-indol-4-ylamino)pyridin-3-yl]-N,N-dimethylbenzenesulfonamide]
10 | CN(C)Cc1ccc(-c2cccc(-c3cncc(C#N)c3Nc3cccc4[nH]ccc34)c2)s1 [Compound 315, 5-(3-{5-[(dimethylamino)methyl]-2-thienyl}phenyl)-4-(1H-indol-4-ylamino)nicotinonitrile]
20 | CS(=O)(=O)Nc1ccc(-c2cncc(C#N)c2Nc2cccc3[nH]ccc23)cc1 [Compound 317, N-{4-[5-cyano-4-(1H-indol-4-ylamino)pyridin-3-yl]phenyl}methanesulfonamide]
10 | N#Cc1cncc(-c2cc3ccccc3o2)c1Nc1cccc2[nH]ccc12 [Compound 318, 5-(1-benzofuran-2-yl)-4-(1H-indol-4-ylamino)nicotinonitrile]
30 | Cc1ccc(S(=O)(=O)n2cc(-c3cncc(C#N)c3Nc3cccc4[nH]ccc34)c3ccccc32)cc1 [Compound 320, 4-(1H-indol-4-ylamino)-5-{1-[(4-methylphenyl)sulfonyl]-1H-indol-3-yl}nicotinonitrile]
20 | N#Cc1cncc(-c2cc3ccccc3s2)c1Nc1cccc2[nH]ccc12 [Compound 322, 5-(1-benzothien-2-yl)-4-(1H-indol-4-ylamino)nicotinonitrile]
20 | COc1ccc(-c2cncc(C#N)c2Nc2cccc3[nH]ccc23)cc1 [Compound 323, 4-(1H-indol-4-ylamino)-5-(4-methoxyphenyl)nicotinonitrile]
20 | COc1ccccc1-c1cncc(C#N)c1Nc1cccc2[nH]ccc12 [Compound 324, 4-(1H-indol-4-ylamino)-5-(2-methoxyphenyl)nicotinonitrile]
20 | N#Cc1cncc(-c2cccc(CN)c2)c1Nc1cccc2[nH]ccc12 [Compound 328, 5-[3-(aminomethyl)phenyl]-4-(1H-indol-4-ylamino)nicotinonitrile]
